In patent US6482806B1, “Product of heat treatment of uronic acid, food, drink, or drug including the product” (Takara Shuzo Co., Ltd., priority 1996, dated 2002):
*1 amine or outer side, *2 acyl side, *3 side chain or, on linkers, in order; H or OH if unused. Where a SMILES comes first, the peptide text is derived from it. Bridges are numbered along the chain shown (N, C = ends). Roman numbers before positions name the chains, in order. [ ]: non-standard residue; d: D form. Actinocin(9to1) = Cc1c2oc3c(C)ccc(C(=O)[*:1])c3nc-2c(C(=O)[*:2])c(N)c1=O; NMeV = CN[C@H](C(=O)O)C(C)C; Sar = CNCC(=O)O

Key:
[1] = system: Human promyelocytic leukemia cells HL-60 (ATCC CRL-1964); assay: Apoptosis induction in HL-60 cells, optical microscope (Example 1); type: cell-based; conditions: 0.1 ml of aqueous solution (0.1 mg/ml) added, 16 hours
Description: Human promyelocytic leukemia cells HL-60 (ATCC CRL-1964) were incubated in an RPMI 1640 medium (manufactured by Nissui) containing 10% of fetal calf serum (manufactured by Gibco) treated at 56° C. for 30 minutes and then suspended in an ASF 104 medium (manufactured by Ajinomoto) to make the cell concentration 5×10^5cells/9 ml.
To this suspension was added 1 ml of the heat-treated pectin solution and the mixture was incubated at 37° C. for 16 hours in the presence of 5% of carbon dioxide. For the sake of confirmation, the same incubation as above was conducted except that 0.1 ml of aqueous solution (0.1 mg/ml) of actinomycin D (manufactured by Sigma) which was known as an apoptosis-inducing reagent and 0.9 ml of a physiological saline solution were used instead of the above-mentioned pectin solution.
Incidentally, in the control where the cells to which 1 ml of physiological saline solution was added were incubated, such phenomena were not observed.

[2] = system: human promyelocytic leukemia cells (HL-60) (ATCC CCL-240); assay: Apoptosis-inducing activity to HL-60 cells, microscope and trypan blue count (method of Example 7); type: cell-based; conditions: 0.05 ml of aqueous solution (0.1 mg/ml) added, 16 hours
Description: Thus, HL-60 (ATCC CCL-240) were incubated in an RPMI 1640 medium (manufactured by Nissui) containing 10% of fetal calf serum (manufactured by Gibco) treated at 56° C. for 30 minutes and then suspended in an RPMI 1640 medium to make the cell concentration 2.5×10^5 cells/4.5 ml.
To 4.5 ml of this suspension was added 0.5 ml of the above-mentioned heat-treated pectin solution and the mixture was incubated at 37° C. for 16 hours in the presence of 5% of carbon dioxide. For the sake of confirmation, the same incubation as above was conducted except that 0.05 ml of an aqueous solution (0.1 mg/ml) of actinomycin D (manufactured by Sigma) which was known as an apoptosis-inducing reagent and 0.45 ml of a physiological saline solution were used instead of the above-mentioned heat-treated pectin solution.
Incidentally, in the control where the cells to which 0.5 ml of a physiological saline solution was added were incubated, such phenomena were not observed.
Further, to the cell suspension was added twice as much by volume of a 0.4% aqueous solution of trypan blue and an observation was conducted under an optical microscope whereby trypan blue was excreted and colorless cells and blue-colored cells were counted as viable and dead cells, respectively.

In the case of Cc1c2oc3c(C)ccc(C(=O)N[C@@H]4C(=O)N[C@H](C(C)C)C(=O)N5CCC[C@H]5C(=O)N(C)CC(=O)N(C)[C@@H](C(C)C)C(=O)O[C@@H]4C)c3nc-2c(C(=O)N[C@@H]2C(=O)N[C@H](C(C)C)C(=O)N3CCC[C@H]3C(=O)N(C)CC(=O)N(C)[C@@H](C(C)C)C(=O)O[C@@H]2C)c(N)c1=O [actinomycin D] (I: T[dV]P[Sar][NMeV] / II: T[dV]P[Sar][NMeV]; ester I:1-I:C, II:1-II:C; linker I:N-II:N via Actinocin(9to1)), the “condensation of nuclei, contraction of cells and production of apoptotic body” value [1] is reported as “condensation of nuclei, contraction of cells and production of apoptotic body were confirmed” and the “condensation of nuclei, contraction of cells and production of apoptotic body” value [2] is reported as “condensation of nuclei, contraction of cells and production of apoptotic body were confirmed”.
